Patent publication US20260365633A1, “Novel PEM Structures for SBX” (Roche Sequencing Solutions, Inc., priority 2023, published 2026)
Changes are numbered by the printed parent chain.

How the values were obtained:
[1] = test system: DNA polymerase; test: SBX nanopore sequencing of primer extension products, histogram of aligned reads; assay type: biochemical
From the text: To investigate the accuracy of PEM-dependent enhancement of XNTP polymerization, primer extension products were sequenced using the SBX protocol. Briefly, the constrained Xpandomer products of XNTP polymerization are cleaved to generate linearized Xpandomers. This is accomplished by first quenching the extension reaction with a solution containing 100 Mm EDTA, 2 Mm THPTA, and 2% Tween-20. Then the sample is subjected to amine modification with a solution of 1 M NaHCO3 and 1 M succinic anhydride in DMF. Cleavage of the phosphoramidate bonds is carried out with 37% HCl and linearized Xpandomers are purified with QIAquick columns (QIAGEN, Inc.).
For sequencing, protein nanopores are prepared by inserting a-hemolysin into a DphPE/hexadecane bilayer member in buffer B1, containing 2 M NH4Cl and 100 Mm HEPES, Ph 7.4. The cis well is perfused with buffer B2, containing 0.4 M NH4Cl, 0.6 M GuCl, and 100 Mm HEPES, Ph 7.4. The Xpandomer sample is heated to 70 °C for 2 minutes, cooled completely, then a 2 μL sample is added to the cis well. A voltage pulse of 90Mv/390Mv/10 μs is then applied and data is acquired via Labview acquisition software.
Sequence data is analyzed by histogram display of the population of sequence reads from a single SBX reaction. […] Representative histograms of SBX sequencing of a 45mer template are presented in FIG. 6A (no additive control) and FIG. 6B (SBX in the presence of PEM compound 1).

[2] = test system: DNA polymerase; test: Primer extension with XNTPs, gel electrophoresis (PEM screen, 45mer template); assay type: biochemical; conditions: 45mer template, FIG. 4, vs no PEM additive (up to only around 14 XNTPs)
From the text: The Sequencing by Expansion (SBX) methodology developed by the inventors provides significant performance enhancements in sequence read efficiency and accuracy of Xpandomers relative to native DNA. However, initial transcription of the sequence of the natural DNA template onto the measurable Xpandomer relies on the ability of DNA polymerase to utilize XNTPs as substrates (the generalized structure of an XNTP is discussed herein with reference to FIG. 1A and FIG. 2). […] In an effort to improve the efficiency and accuracy of XNTP polymerization into Xpandomers, several PEMs were screened for the ability to enhance DNA polymerase primer extension reactions using XNTPs as substrates.
A representative primer extension reaction may include the following reagents: 2 pmol primer, 2.2 pmol 45mer [COMPOUND LEFT OUT] template, 50 pmol of each XNTP (XATP, XCTP, XGTP, and XTTP), 50 Mm Tris HCl, Ph 6.79, 200 Mm NaCl, 20% PEG, 5% NMS, 0.5 nmol polyphosphate 60.19, 0.3 Mm MnCl2, and 0.6 μg of purified recombinant DNA polymerase protein. Reactions may be run for 1 hour at 23 °C. Reaction products (i.e., constrained Xpandomers) are treated to cleave the phosphoramidate bonds, thereby generating linearized Xpandomers. Reaction products may be analyzed using gel electrophoresis on 4-12% acrylamide gels to resolve and visualize Xpandomer products of different lengths. For the PEM screen described above, PEMs were typically tested in the micro to millimolar range.

[3] = target: T1, C4760 DNA polymerase (a variant of DPO4) (Saccharolobus solfataricus, UniProt Q97W02, A155G/A42V/D156R/D292Y/D294N/E291S/E324K/E325K/E327K/E63R/E79L/G187P/G299W/I153V/I189F/I248T/I295S/K152A/K317Q/K321Q/K56Y/K78D/L293W/M76W/N188Y/P184Q/Q82W/Q83G/R300S/S297Y/S86E/T290K/T301W/V289W/V296Q); test: Primer extension on 411mer amplicon template with C4760 polymerase, gel; assay type: biochemical, Sulfolobus solfataricus
T1 construct: Eco or Kod SSB in reaction as additive
T1 sequence (Q97W02 1-340 A155G/A42V/D156R/D292Y/D294N/E291S/E324K/E325K/E327K/E63R/E79L/G187P/G299W/I153V/I189F/I248T/I295S/K152A/K317Q/K321Q/K56Y/K78D/L293W/M76W/N188Y/P184Q/Q82W/Q83G/R300S/S297Y/S86E/T290K/T301W/V289W/V296Q): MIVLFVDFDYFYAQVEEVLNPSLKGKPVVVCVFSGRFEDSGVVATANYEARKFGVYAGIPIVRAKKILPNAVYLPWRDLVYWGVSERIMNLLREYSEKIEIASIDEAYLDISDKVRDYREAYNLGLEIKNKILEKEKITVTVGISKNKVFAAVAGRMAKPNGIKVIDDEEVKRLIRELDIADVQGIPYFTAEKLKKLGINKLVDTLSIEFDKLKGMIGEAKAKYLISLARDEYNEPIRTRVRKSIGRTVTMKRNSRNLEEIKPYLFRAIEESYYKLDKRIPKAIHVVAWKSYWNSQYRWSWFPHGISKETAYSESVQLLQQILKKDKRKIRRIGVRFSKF
Protocol: PEM activity of compound 15 was tested in primer extension assays using a 411mer amplicon template. Primer extension reactions included the following reagents: 50 Mm TrisCl, 200 Mm NH40ac, 20% PEG8K, 5% NMS, 3 nmol PP-60.20, 2 Mm MnCl2, 2 μg Kod single-strand binding protein (SSB), 1 M urea, 250 pmol each XNTP, 1 pmol template, 1 pmol [COMPOUND LEFT OUT] primer, 1.2 μg purified recombinant C4760 DNA polymerase (a variant of DPO4, see SEQ ID NO: 2), and 2 (lane 2) or 3 (lane 3) Mm PEM. 10 μL primer extension reactions were run for 20 minutes at 37 °C and reaction products were analyzed by gel electrophoresis. A representative gel showing primer extension products is presented in FIG. 12 (the position of a 277mer is indicated by the arrow). […] Remarkably, the polymerase is completely dependent upon the addition of PEM to the reaction in order to be capable of synthesizing these lengthy Xpandomer products. Even longer extension products may be obtained by optimizing various reaction parameters, e.g., extension time and/or concentrations of various additives.
PEM activity of compound 19, was tested in primer extension assays using the 411mer amplicon template. […] 10 μL primer extension reactions were run for 30 minutes at 37 °C and reaction products were analyzed by gel electrophoresis. […]

[4] = target: T2, C4552 DNA polymerase (Saccharolobus solfataricus, UniProt Q97W02, A155G/A42V/D156R/D292Y/D294N/E291S/E324K/E325K/E327K/E79L/G187P/G299W/I153V/I189F/I248T/I295S/K152A/K317Q/K321Q/K56Y/K78D/L293W/M76W/N188Y/P184Q/Q82W/Q83G/R300S/S297Y/S86E/T290K/T301W/V289W/V296Q); test: Primer extension on HIV1, HIV2, HIV3 100mer templates with C4552 polymerase, gel; assay type: biochemical, Sulfolobus solfataricus; conditions: 0.5 Mm PEM, 30 minutes at 23 °C, three 100mer templates, FIG. 9
T2 construct: Tth SSB in reaction as additive
T2 sequence (Q97W02 1-340 A155G/A42V/D156R/D292Y/D294N/E291S/E324K/E325K/E327K/E79L/G187P/G299W/I153V/I189F/I248T/I295S/K152A/K317Q/K321Q/K56Y/K78D/L293W/M76W/N188Y/P184Q/Q82W/Q83G/R300S/S297Y/S86E/T290K/T301W/V289W/V296Q): T1 sequence (Q97W02 1-340 A155G/A42V/D156R/D292Y/D294N/E291S/E324K/E325K/E327K/E63R/E79L/G187P/G299W/I153V/I189F/I248T/I295S/K152A/K317Q/K321Q/K56Y/K78D/L293W/M76W/N188Y/P184Q/Q82W/Q83G/R300S/S297Y/S86E/T290K/T301W/V289W/V296Q) with R63E
Protocol: PEM activity of compounds 9-11 was tested in primer extension assays using three 100mer templates, derived from the HIV1, 2, and 3 genomes. Primer extension reactions included the following reagents: 75 Mm TrisCl, Ph 8.44, 175 Mm NH40ac, 20% PEG8K, 5% NMS, 0.8 nmol PP-60.20, 0.6 Mm MnCl2, 2.3 μg Tth single-strand binding protein (SSB), 0.5 M or 1 M urea, 200 pmol each XNTP, 1.1 pmol template, 1 pmol [COMPOUND LEFT OUT] primer, 1.2 μg purified recombinant C4552 DNA polymerase, and 0.5 Mm PEM. 10 μL primer extension reactions were run for 30 minutes at 23 °C and reaction products were analyzed by gel electrophoresis.

With `O=C(O)c1ccc(-n2cc(-c3cccc(-c4cn(-c5ccc(C(=O)O)c(O)c5)nn4)n3)nn2)cc1O` [Compound 1, 4,4′-(pyridine-2,6-diylbis(1H-1,2,3-triazole-4,1-diyl))bis(2-hydroxybenzoic acid)] the “accuracy of sequence reads” value ([1]; 45mer template, FIG. 6B, vs no additive (not accurate past around base 18)) was “increased the accuracy of the sequence reads across the entire length of the 45mer template”, the sequence reads ([1]; 60mer template, FIG. 7A) was “accurate sequence reads completely to the end” and the sequence reads ([1]; 80mer template, FIG. 7B) was “accurate sequence reads completely to the end”. The “primer extension products with XNTPs” value [2] was “considerably longer extension products”.
In the case of `NC(=O)c1cc(-c2cn(-c3ccc(C(=O)O)c(O)c3)nn2)nc(-c2cn(-c3ccc(C(=O)O)c(O)c3)nn2)c1` [Compound 19, 4,4′-((4-carbamoylpyridine-2,6-diyl)bis(1H-1,2,3-triazole-4,1-diyl))bis(2-hydroxybenzoic acid)], the “XNTP polymerization relative to compound 14” value ([3]; 0.5, 1, or 1.5 Mm PEM, 30 minutes at 37 °C, FIG. 14) is reported as “less efficient than that of compound 14”.
For `CCOC(=O)c1cc(-c2cn(-c3ccc(O)c(C(=O)O)c3)nn2)nc(-c2cn(-c3ccc(O)c(C(=O)O)c3)nn2)c1` [Compound 15, 5,5′-((4-(ethoxycarbonyl)pyridine-2,6-diyl)bis(1H-1,2,3-triazole-4,1-diyl))bis(2-hydroxybenzoic acid)], the “XNTP polymerization relative to compound 14” value ([3]; 2 or 3 Mm PEM, 20 minutes at 37 °C, FIG. 12) was “comparable to that of compound 14”.
In the case of `COc1cc(-c2cn(-c3ccc(C(=O)O)c(O)c3)nn2)nc(-c2cn(-c3ccc(C(=O)O)c(O)c3)nn2)c1` [Compound 9, 4,4′-((4-methoxypyridine-2,6-diyl)bis(1H-1,2,3-triazole-4,1-diyl))bis(2-hydroxybenzoic acid)], the “XNTP polymerization efficiency relative to compound 1” value [4] is reported as “at least as efficiently as compound 1”.
In the case of `O=C(O)c1ccc(-n2cc(-c3cc([N+](=O)[O-])cc(-c4cn(-c5ccc(C(=O)O)c(O)c5)nn4)n3)nn2)cc1O` [Compound 11, 4,4′-((4-nitropyridine-2,6-diyl)bis(1H-1,2,3-triazole-4,1-diyl))bis(2-hydroxybenzoic acid)], the “XNTP polymerization efficiency relative to compound 1” value [4] is reported as “at least as efficiently as compound 1”.
